Test results as given in patent publication US7550469B2, “Heterocyclic amide derivatives and their use as dopamine D3 receptor ligands” (Aventis Pharmaceuticals Inc., priority 2001, dated 2009).

How the values were obtained:
[1] = system: Alpha-1 adrenergic receptors from rat brain cortex; assay: [3H]Prazosin binding to alpha-1 adrenergic receptors from rat brain cortex (Protocol 4); conditions: for r-α1 % Inh: r = rat, Inh @ 1 μM
From the text: [^3H]Prazosin Binding to Alpha-1 Adrenergic Receptors from Rat Brain Cortex
Objective: This in vitro assay is designed as a screen to identify compounds displaying a affinity for the a, adrenoceptor subtype in membranes from rat cortex. It measures the ability of the test compounds to displace [^3H]prazosin from the α1 sites.
Membrane Preparation: Rat brain tissue can be obtained from either fresh (male Wistar rats; 200-250 g) or frozen (male Sprague-Dawley 200-250 g from Harlan; cat. #BT-403) stocks. The cortex is dissected, homogenized in 50 vol (wet weight) ice-cold 50 mM Tris buffer (pH 7.7 at 25° C.). The homogenate is centrifuged at 48,000 g for 10 min, the pellet is resuspended in 50 mM Tris buffer and centrifuged a second time. The second pellet (P2) is resuspended to yield a concentration of 115 mg wet weight per 10 ml. […] Membranes should be mixed just before addition to ensure an even suspension. […] This is diluted to a 0.5 mM stock in dH2O. Serial dilutions in Buffer A are made from which 50 μl additions to the plate are made in duplicate in order to achieve the final concentrations desired. Typically, one 96 well plate is used to evaluate 11 compounds at 4 concentrations (10^−6-10^−9 M) in duplicate. Total binding and nonspecific binding are determined in quadruplicate. Usually one standard is run with each assay. • [^3H]Prazosin is made up in Buffer A such that when 50 μl are added per well the final concentration is […] in a final assay volume of 200 μl. The final concentration should be verified by running a sample in a scintillation counter prior to adding the [^3H]prazosin to the 96 well plate. Note: The radioactivity should be prepared just before the additions are made so that it is not allowed to sit on the bench for very long. • Packard GF/B Plate Pretreatment: The filter plates are presoaked for at least 30 min in ice cold Buffer B containing 0.05% polyethyleneimine (200 μl/200 ml) to maximize filtration efficiency and minimize filter blank binding. • Incubation & Filtration: Once buffer, compounds, [^3H]prazosin and membrane have been added (and mixed), the 96 well plates are incubated for 40 min at 37° C. and spaced 3-5 min apart. At 40 min, the plates are filtered using a Tomtec Automated Cell Harvester. Filtration is immediately followed by washes of ice cold Buffer B (total vol. ˜7 ml). • Drying and Counting: Each filter plate is dried under a heat lamp for 15 min. The back of the plate is sealed and 40 μl of Packard microscint fluid are added per well. Using Packard film, each plate is heat sealed prior to being counted in a Packard Topcount Scintillation counter. A program has been written that counts each plate twice sending DPM, CPM and TSIS data to disk and printer. • Analysis of Results: Raw DPM and CPM data are captured on disk and are imported into one of several software packages (Graphpad Prism Ver 2.0, Excel) residing on the LAN. Specific binding is defined as the difference between total binding and the binding in the presence of 10 μM phentolamine. Total binding is less than 10% of the total added ligand. Software using one-site competition curve analysis is employed in the calculation of IC50 and KI (Cheng-Prusoff equation, 1973). The top and bottom of the non-linear regression are held constant at 0% and 100% inhibition. The percent inhibition at each drug concentration is the mean of duplicate determinations.

[2] = target: T1, human dopamine D3 receptor (Homo sapiens, UniProt P35462); assay: Microphysiometer test of functional activity in CHO cells expressing human dopamine D3 receptor (quinpirole-induced acidification rate); format: cell-based; conditions: test compound 10 nM, 100 nM, 1 uM; quinpirole 10 nM
T1 construct: expressed in transfected cells; host or cells: CHO cells
T1 sequence (P35462 whole entry): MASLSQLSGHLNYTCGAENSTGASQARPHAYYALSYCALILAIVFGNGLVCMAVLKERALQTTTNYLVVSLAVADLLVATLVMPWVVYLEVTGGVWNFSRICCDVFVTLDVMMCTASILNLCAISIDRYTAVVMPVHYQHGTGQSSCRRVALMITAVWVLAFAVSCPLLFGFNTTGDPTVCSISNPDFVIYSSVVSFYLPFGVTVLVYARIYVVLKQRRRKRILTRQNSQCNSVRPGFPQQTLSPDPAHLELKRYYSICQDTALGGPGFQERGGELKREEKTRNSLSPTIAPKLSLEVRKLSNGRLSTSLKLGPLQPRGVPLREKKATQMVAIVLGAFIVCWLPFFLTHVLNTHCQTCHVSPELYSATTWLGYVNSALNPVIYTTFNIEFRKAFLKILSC
Protocol: The functional activity of compounds of the invention (i.e. whether they are antagonists, agonists or partial agonists) can readily be determined using the microphysiometer test method that follows:
Chinese Hamster Ovary (CHO) cells, expressing the human dopamine D3 receptor, were grown on the surface of a capsule cup. Cups are assembled and placed on the microphysiometer, and buffer (Dulbecco's Modified Eagle's Medium without sodium bicarbonate and without serum) is perfused through the cup assembly until a stable baseline is achieved (4 hours). Buffer perfusion rate and solution changes are controlled by a computer. Intracellular acidification rate is measured in each of the 8 cup assemblies and recorded by the computer. Buffer containing test compound (10 nM, 100 nM, and 1 uM) is perfused through the cup assembly for 20 min. Buffer containing quinpirole (10 nM) (a D3 agonist) and test compound (same concentrations) is perfused for an additional 1 min. This is followed by a recovery period of 10-60 min where buffer alone was perfused through the cups. Quinpirole increases the rate of acidification. If the test compound is a D3 antagonist, this increase will be inhibited in a concentration dependent manner.

| r-α1 % Inh [1] [%] | other results | SMILES |
| --- | --- | --- |
|  | rat alpha 1 % I ([1]; @ 10 uM): 50% @ 10 uM | O=C(NCCCCN1CCN(c2csc3cc(C(F)(F)F)ccc23)CC1)c1cc2ccccc2s1 [814238A] |
|  | functional activity at D3 (inhibition of quinpirole-induced increase of acidification rate) [2]: D3 antagonists | CCOc1ccc(C(=O)NCCCCN2CCN(c3csc4cc(C(F)(F)F)ccc34)CC2)cc1 [compound 815541] |
| 14 |  | O=C(NCCCCN1CCCN(c2csc3cc(F)ccc23)CC1)c1ccc(OC(F)(F)F)cc1 [compound 822152] |
| 0 |  | O=C(NCCCCN1CCCN(c2csc3cc(F)ccc23)CC1)c1cccc(F)c1 [compound 822154] |
| 41 |  | COc1ccccc1C(=O)NCCCCN1CCCN(c2csc3cc(F)ccc23)CC1 [compound 822157] |
| 0 |  | CC(C)(C)c1ccc(C(=O)NCCCCN2CCCN(c3csc4cc(F)ccc34)CC2)cc1 [compound 822198] |
